The data set is described as follows: Fluidity evaluation: angle of repose determination (fixed base cone method). As to conditions: for fluidity (judgement in words): fixed base cone method. In kind it is physicochemical. From the text:
The term “fluidity” in the present Specification means adhesion and cohesion between particles or adhesion of a particle with a solid wall surface. Said “fluidity” can be put into numerical terms by, for instance, methods of determining the angle of repose of a powder. Methods of determining the angle of repose are known to those in the field, but the fixed base cone method by funnel is an example (for instance, “Yakuzaigaku,” Ryuichi Arita, Hitoshi Sezaki, editors (Kodansha Scientific), p. 182). […] R. L. Jr., Chemical Engineering, Jan. 18, p. 166, Table II, 1965).
[Fluidity evaluation: angle of repose determination] A funnel for pouring powder is placed above a table for determination of the angle of repose. The angle formed by the surface of a layer of accumulated powder and a horizontal plane when the powder is poured so that none remains in the funnel is determined and this angle (°) serves as the angle of repose.

Structures are written as SMILES. Counter-ions that a name gives are not always drawn.

Experimental findings from patent publication US6656492B2, “Quick disintegrating tablet in buccal cavity and manufacturing method thereof” (Yamanouchi Pharmaceutical Co., Ltd., priority 2000, dated 2003) are described below.

With `NC(N)=Nc1nc(CSCCC(N)=NS(N)(=O)=O)cs1` [famotidine undiluted powder, famotidine], the “fluidity (judgement in words)” value was “extremely inferior fluidity”.

`Nc1c(Br)cc(Br)cc1CN[C@H]1CC[C@H](O)CC1` [amboxol hydrochloride, ambroxol hydrochloride]: the “fluidity (judgement in words)” value is “could not be fed by funnel even using the vibrator”.

With `O=C([O-])[O-].[Ca+2]` [calcium carbonate undiluted powder, calcium carbonate], the “fluidity (judgement in words)” value is given as “fluidity was not good”. The compound also came in with an angle of repose (determination performed with a vibrator) of 50 °.
